Data taken from patent publication US20190070139A1, “AGENT FOR IMPROVING PHYSICAL FITNESS” (AJINOMOTO CO., INC, priority 2016, published 2019).

How the values were obtained:
[1] = system: male CD2F1 mice; assay: Treadmill running until exhaustion (endurance capacity); assay type: in vivo, mouse
Method: 6-Week-old male CD2F1 mice (CHARLES RIVER LABORATORIES JAPAN, INC.) were divided into 3 groups of a group with ingestion of a normal diet (AIN-93G composition) and without exercise (non-exercise group), a group with ingestion of a normal diet and with exercise (exercise group), and a group with ingestion of a diet containing 2 wt % cystine (free form), which was prepared by replacing casein in the normal diet with cystine, and with exercise (exercise+2% cystine group). Each group ingested a test diet (normal diet or normal diet containing 2 wt % cystine) for 8 days. Thereafter, the exercise group and the exercise+2% cystine group were made to run on a treadmill until exhaustion for 3 consecutive days, and the running time until then was measured (FIG. 1). […] On the next day after completion of the 3-day running, the muscle of the mice in each group was collected, and the amount of glycogen in the muscle was measured. […] Thereafter, the mice were forced to run until exhaustion under the exercise conditions similar to those in Experimental Example 1, and the running time then was measured. […] The next day, the mice were made to run until exhaustion under the exercise conditions similar to those in Experimental Example 1, and the running time then was measured. The amount of increase in the running time was calculated as an endurance-improving effect. […]

[2] = system: glycogen in gastrocnemius muscle; assay: Amount of glycogen in gastrocnemius muscle; assay type: in vivo, mouse; settings: Experimental Example 1; next day after 3-day continuous exercise; Ex+Cyt (2 wt % cystine diet) vs Ex
Method: 6-Week-old male CD2F1 mice (CHARLES RIVER LABORATORIES JAPAN, INC.) were divided into 3 groups of a group with ingestion of a normal diet (AIN-93G composition) and without exercise (non-exercise group), a group with ingestion of a normal diet and with exercise (exercise group), and a group with ingestion of a diet containing 2 wt % cystine (free form), which was prepared by replacing casein in the normal diet with cystine, and with exercise (exercise+2% cystine group). Each group ingested a test diet (normal diet or normal diet containing 2 wt % cystine) for 8 days. Thereafter, the exercise group and the exercise+2% cystine group were made to run on a treadmill until exhaustion for 3 consecutive days, and the running time until then was measured (FIG. 1). The non-exercise group was fasted and deprived of water during running of the other two groups. On the next day after completion of the 3-day running, the muscle of the mice in each group was collected, and the amount of glycogen in the muscle was measured. The amount of glycogen in muscle was measured as follows. […] Glucose in this solution was detected and quantified using “glucose CII-Test Wako” (manufactured by Wako Pure Chemical Industries, Ltd.). […] The groups with exercise were forced to run in a treadmill until exhaustion for 2 consecutive days and the running time then was measured. […]

NC(CSSCC(N)C(=O)O)C(=O)O (stereo not drawn) [cystine, 3,3′-dithiobis(2-aminopropanoic acid)]
amount of increase in the running time by exercise ([1]; Experimental Example 1, diet containing 2 wt % cystine for 8 days, then running until exhaustion for 3 consecutive days, Ex+Cyt vs Ex (normal diet)): significantly (P<0.05 or P<0.01) higher | amount of increase in the running time ([1]; Experimental Example 2, 2 wt % cystine diet given for one day after exercise on day 1, day 2 minus day 1, Ex+Cyt vs Ex): tended to be higher | amount of glycogen in gastrocnemius muscle [2]: further significantly (P<0.05) increased
